# Measurements reported in patent publication US8952024B2, “Herbicidal pyrimidone derivatives” (E I du Pont de Nemours and Company, priority 2009, dated 2015).
# What was measured:
# Assay in all cases: Test B pre-/postemergence plant response
# Format in all cases: in vivo
# [1] = test system: kochia (Kochia scoparia); details: Postemergence
# Summary of the method: (§1)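 Seeds sown in loam–sand blend were treated preemergence, and plants at 2–18 cm (1- to 4-leaf stage) in peat-based medium were treated postemergence; compounds were formulated in non-phytotoxic solvent with surfactant. After 13–15 days in greenhouse, response was visually rated against controls, 0 (no effect) to 100 (complete control).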
# [2] = test system: blackgrass (Alopecurus myosuroides)
# Summary of the method: as §1
# [3] = test system: morningglory (Ipomoea coccinea)
# Summary of the method: as §1
# [4] = test system: wild oat (Avena fatua)
# Summary of the method: as §1
# [5] = test system: Surinam grass (Brachiaria decumbens)
# Summary of the method: as §1
# [6] = test system: woolly cupgrass (Eriochloa villosa)
# Summary of the method: as §1
# [7] = test system: cocklebur (Xanthium strumarium)
# Summary of the method: as §1
# [8] = test system: ragweed (common ragweed, Ambrosia elatior)
# Summary of the method: as §1
# [9] = test system: downy bromegrass (Bromus tectorum)
# Summary of the method: as §1
# [10] = test system: bermudagrass (Cynodon dactylon)
# Summary of the method: as §1
# [11] = test system: Italian ryegrass (Lolium multiflorum)
# Summary of the method: as §1
# [12] = test system: wheat (Triticum aestivum)
# Summary of the method: as §1
# [13] = test system: large crabgrass (Digitaria sanguinalis)
# Summary of the method: as §1
# [14] = Postemergence, 31 g ai/ha, 0 to 100 scale (0 no effect, 100 complete control)
# [15] = Postemergence, 62 g ai/ha, scale 0 to 100 (0 no effect, 100 complete control)
# [16] = Postemergence, 125 g ai/ha, scale 0 (no effect) to 100 (complete control), 13 to 15 days
# [17] = Postemergence, 250 g ai/ha, scale 0 to 100 (0 no effect, 100 complete control), 13 to 15 days
# [18] = 250 g ai/ha, Preemergence, 0 to 100 scale
# [19] = Postemergence, 31 g ai/ha, scale 0 to 100 (0 no effect, 100 complete control)
# [20] = Postemergence, 62 g ai/ha, scale 0 (no effect) to 100 (complete control), 13 to 15 days
# [21] = Postemergence, 125 g ai/ha, visual rating after 13 to 15 days, scale 0 (no effect) to 100 (complete control)
# [22] = Postemergence, 250 g ai/ha, scale 0 to 100
# [23] = Preemergence, 31 g ai/ha, scale 0 to 100 (0 no effect, 100 complete control)
# [24] = Preemergence, 62 g ai/ha, scale 0 to 100 (0 no effect, 100 complete control)
# [25] = Preemergence, 125 g ai/ha, 0 to 100 scale
smiles,measurement,setting,value
CCn1c(-c2ccccc2)ncc(C(=O)C2=C(O)C3CCC(C3)C2=O)c1=O (centres unmarked) [Compound 239],"Plant response rating, Kochia","[1]; 31 g ai/ha, 0 to 100 scale (0 no effect, 100 complete control)",90
same,"Plant response rating, Kochia","[1]; 62 g ai/ha, scale 0 to 100 (0 no effect, 100 complete control)",98
same,"Plant response rating, Kochia","[1]; 125 g ai/ha, scale 0 (no effect) to 100 (complete control), 13 to 15 days",98
same,"Plant response rating, Kochia","[1]; 250 g ai/ha, scale 0 to 100 (0 no effect, 100 complete control), 13 to 15 days",98
same,"Plant response rating, Blackgrass",[2]; [14],5
same,"Plant response rating, Blackgrass",[2]; [15],5
same,"Plant response rating, Blackgrass",[2]; [16],30
same,"Plant response rating, Blackgrass",[2]; [17],50
same,"Plant response rating, Morningglory",[3]; [14],95
same,"Plant response rating, Morningglory",[3]; [16],100
same,"Plant response rating, Morningglory",[3]; [17],100
same,"Plant response rating, Oat, Wild",[4]; [14],0
same,"Plant response rating, Oat, Wild",[4]; [15],5
same,"Plant response rating, Oat, Wild",[4]; [16],5
same,"Plant response rating, Oat, Wild",[4]; [17],30
same,"Plant response rating, Surinam Grass",[5]; [14],25
same,"Plant response rating, Surinam Grass",[5]; [15],35
same,"Plant response rating, Surinam Grass",[5]; [16],45
same,"Plant response rating, Surinam Grass",[5]; [17],75
same,"Plant response rating, Cupgrass, Woolly",[6]; [14],75
same,"Plant response rating, Cupgrass, Woolly",[6]; [15],95
same,"Plant response rating, Cupgrass, Woolly",[6]; [16],95
same,"Plant response rating, Cupgrass, Woolly",[6]; [17],95
same,"Plant response rating, Cocklebur",[7]; [14],90
same,"Plant response rating, Cocklebur",[7]; [15],100
same,"Plant response rating, Cocklebur",[7]; [16],100
same,"Plant response rating, Cocklebur",[7]; [17],100
same,"Plant response rating, Ragweed",[8]; [14],95
same,"Plant response rating, Ragweed",[8]; [15],98
same,"Plant response rating, Ragweed",[8]; [16],100
same,"Plant response rating, Ragweed",[8]; [17],100
same,"Plant response rating, Bromegrass, Downy",[9]; [14],0
same,"Plant response rating, Bromegrass, Downy",[9]; [15],5
same,"Plant response rating, Bromegrass, Downy",[9]; [16],5
same,"Plant response rating, Bromegrass, Downy",[9]; [17],10
same,"Plant response rating, Bermudagrass",[10]; [14],95
same,"Plant response rating, Bermudagrass",[10]; [15],100
same,"Plant response rating, Bermudagrass",[10]; [16],100
same,"Plant response rating, Bermudagrass",[10]; [17],100
same,"Plant response rating, Ryegrass, Italian",[11]; [14],0
same,"Plant response rating, Ryegrass, Italian",[11]; [15],0
same,"Plant response rating, Ryegrass, Italian",[11]; [16],0
same,"Plant response rating, Ryegrass, Italian",[11]; [17],0
same,"Plant response rating, Wheat",[12]; [14],0
same,"Plant response rating, Wheat",[12]; [15],0
same,"Plant response rating, Wheat",[12]; [16],5
same,"Plant response rating, Wheat",[12]; [17],30
same,"Plant response rating, Crabgrass, Large",[13]; [14],75
same,"Plant response rating, Crabgrass, Large",[13]; [15],90
same,"Plant response rating, Crabgrass, Large",[13]; [16],95
same,"Plant response rating, Crabgrass, Large",[13]; [17],98
Cc1c(Cl)cccc1-n1c(-c2ccccc2)ncc(C(=O)C2=C(O)CCCC2=O)c1=O [Compound 40],"Plant response rating, Kochia","[1]; 62 g ai/ha, scale 0 (no effect) to 100 (complete control), 13 to 15 days",0
same,"Plant response rating, Kochia","[1]; 125 g ai/ha, visual rating after 13 to 15 days, scale 0 (no effect) to 100 (complete control)",10
same,Kochia plant response rating,"[1]; 250 g ai/ha, scale 0 to 100",75
same,"Plant response rating, Blackgrass",[2]; [18],5
same,"Plant response rating, Blackgrass",[2]; [19],0
same,"Plant response rating, Blackgrass",[2]; [20],10
same,"Plant response rating, Blackgrass",[2]; [21],10
same,Blackgrass plant response rating,[2]; [22],15
same,"Plant response rating, Blackgrass",[2]; [23],0
same,"Plant response rating, Blackgrass",[2]; [24],0
same,Blackgrass plant response rating,[2]; [25],0
same,"Plant response rating, Morningglory",[3]; [18],65
same,"Plant response rating, Morningglory",[3]; [21],75
same,"Plant response rating, Morningglory",[3]; [23],0
same,"Plant response rating, Morningglory",[3]; [24],0
same,Morningglory plant response rating,[3]; [25],0
same,"Plant response rating, Oat, Wild",[4]; [18],30
same,"Plant response rating, Oat, Wild",[4]; [20],85
same,"Plant response rating, Oat, Wild",[4]; [21],90
same,"Plant response rating, Oat, Wild",[4]; [23],0
same,"Oat, Wild plant response rating",[4]; [25],0
same,"Plant response rating, Surinam Grass",[5]; [18],90
same,"Plant response rating, Surinam Grass",[5]; [20],95
same,"Plant response rating, Surinam Grass",[5]; [21],98
same,"Plant response rating, Surinam Grass",[5]; [23],40
same,Surinam Grass plant response rating,[5]; [25],85
same,"Plant response rating, Cupgrass, Woolly",[6]; [18],85
same,"Plant response rating, Cupgrass, Woolly",[6]; [19],90
same,"Plant response rating, Cupgrass, Woolly",[6]; [20],95
same,"Plant response rating, Cupgrass, Woolly",[6]; [21],98
same,"Cupgrass, Woolly plant response rating",[6]; [22],98
same,"Plant response rating, Cupgrass, Woolly",[6]; [23],0
same,"Plant response rating, Cupgrass, Woolly",[6]; [24],50
same,"Cupgrass, Woolly plant response rating",[6]; [25],70
same,"Plant response rating, Cocklebur",[7]; [18],100
same,"Plant response rating, Cocklebur",[7]; [23],65
same,Cocklebur plant response rating,[7]; [25],85
same,"Plant response rating, Ragweed",[8]; [18],95
same,"Plant response rating, Ragweed",[8]; [20],98
same,"Plant response rating, Ragweed",[8]; [21],98
same,"Plant response rating, Ragweed",[8]; [23],75
same,Ragweed plant response rating,[8]; [25],90
same,"Plant response rating, Bromegrass, Downy",[9]; [18],10
same,"Plant response rating, Bromegrass, Downy",[9]; [19],45
same,"Plant response rating, Bromegrass, Downy",[9]; [20],50
same,"Plant response rating, Bromegrass, Downy",[9]; [21],70
same,"Bromegrass, Downy plant response rating",[9]; [22],85
same,"Plant response rating, Bromegrass, Downy",[9]; [23],0
same,"Plant response rating, Bromegrass, Downy",[9]; [24],0
same,"Bromegrass, Downy plant response rating",[9]; [25],5
same,"Plant response rating, Bermudagrass",[10]; [18],100
same,"Plant response rating, Bermudagrass",[10]; [20],100
same,"Plant response rating, Bermudagrass",[10]; [21],100
same,Bermudagrass plant response rating,[10]; [22],100
same,"Plant response rating, Bermudagrass",[10]; [23],98
same,"Plant response rating, Bermudagrass",[10]; [24],100
same,Bermudagrass plant response rating,[10]; [25],100
same,"Plant response rating, Ryegrass, Italian",[11]; [18],5
same,"Plant response rating, Ryegrass, Italian",[11]; [20],0
same,"Plant response rating, Ryegrass, Italian",[11]; [21],0
same,"Plant response rating, Ryegrass, Italian",[11]; [23],0
same,"Ryegrass, Italian plant response rating",[11]; [25],5
same,"Plant response rating, Wheat",[12]; [20],20
same,"Plant response rating, Wheat",[12]; [21],30
same,"Plant response rating, Wheat",[12]; [23],0
same,Wheat plant response rating,[12]; [25],0
same,"Plant response rating, Crabgrass, Large",[13]; [18],100
same,"Plant response rating, Crabgrass, Large",[13]; [19],85
same,"Plant response rating, Crabgrass, Large",[13]; [20],98
same,"Plant response rating, Crabgrass, Large",[13]; [21],100
same,"Crabgrass, Large plant response rating",[13]; [22],100
same,"Plant response rating, Crabgrass, Large",[13]; [23],70
same,"Plant response rating, Crabgrass, Large",[13]; [24],98
same,"Crabgrass, Large plant response rating",[13]; [25],100
